From patent publication US7045532B2 (Millennium Pharmaceuticals, Inc., priority 1999, dated 2006)
Like-named read-outs stand apart in the source and are kept apart here.

Assays:
Carboxypeptidase A = target: T1, Carboxypeptidase A (Bos taurus, UniProt P00730); experiment: Carboxypeptidase A activity assay; format: biochemical; details: Ki class, compounds tested in 5% DMSO
T1 sequence (P00730 111-419): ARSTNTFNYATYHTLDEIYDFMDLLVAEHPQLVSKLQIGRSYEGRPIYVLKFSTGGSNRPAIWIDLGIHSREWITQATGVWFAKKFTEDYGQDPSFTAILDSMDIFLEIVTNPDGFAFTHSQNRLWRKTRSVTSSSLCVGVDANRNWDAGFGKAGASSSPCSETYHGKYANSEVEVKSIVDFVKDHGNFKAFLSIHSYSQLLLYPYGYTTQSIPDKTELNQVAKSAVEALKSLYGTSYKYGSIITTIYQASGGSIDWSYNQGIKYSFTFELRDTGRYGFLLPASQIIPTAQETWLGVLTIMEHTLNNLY
How it was run: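 Ki obtained by correcting apparent Ki for substrate, Ki=Kiapp/(1+[S]/Km), from 12-concentration series. Enzyme activity read by absorbance at 328 nm with 5% DMSO present, EDTA stop.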

ACE-2 [1] = target: ACE-2 (Rattus norvegicus, UniProt Q5EGZ1); experiment: ACE-2 Competitive Substrate Assay, rat ACE-2; format: biochemical; details: Ki class, compounds tested in 5% DMSO
ACE (Sigma, A2580) = target: T2, ACE (Sigma, A2580) (Sus scrofa, UniProt F1RRW5); experiment: ACE enzymatic activity assay; format: biochemical, porcine; details: Ki class, compounds tested in 5% DMSO
T2 construct: ACE from porcine kidney; purchased Sigma A2580; host or cells: porcine kidney
T2 sequence (F1RRW5 34-1309): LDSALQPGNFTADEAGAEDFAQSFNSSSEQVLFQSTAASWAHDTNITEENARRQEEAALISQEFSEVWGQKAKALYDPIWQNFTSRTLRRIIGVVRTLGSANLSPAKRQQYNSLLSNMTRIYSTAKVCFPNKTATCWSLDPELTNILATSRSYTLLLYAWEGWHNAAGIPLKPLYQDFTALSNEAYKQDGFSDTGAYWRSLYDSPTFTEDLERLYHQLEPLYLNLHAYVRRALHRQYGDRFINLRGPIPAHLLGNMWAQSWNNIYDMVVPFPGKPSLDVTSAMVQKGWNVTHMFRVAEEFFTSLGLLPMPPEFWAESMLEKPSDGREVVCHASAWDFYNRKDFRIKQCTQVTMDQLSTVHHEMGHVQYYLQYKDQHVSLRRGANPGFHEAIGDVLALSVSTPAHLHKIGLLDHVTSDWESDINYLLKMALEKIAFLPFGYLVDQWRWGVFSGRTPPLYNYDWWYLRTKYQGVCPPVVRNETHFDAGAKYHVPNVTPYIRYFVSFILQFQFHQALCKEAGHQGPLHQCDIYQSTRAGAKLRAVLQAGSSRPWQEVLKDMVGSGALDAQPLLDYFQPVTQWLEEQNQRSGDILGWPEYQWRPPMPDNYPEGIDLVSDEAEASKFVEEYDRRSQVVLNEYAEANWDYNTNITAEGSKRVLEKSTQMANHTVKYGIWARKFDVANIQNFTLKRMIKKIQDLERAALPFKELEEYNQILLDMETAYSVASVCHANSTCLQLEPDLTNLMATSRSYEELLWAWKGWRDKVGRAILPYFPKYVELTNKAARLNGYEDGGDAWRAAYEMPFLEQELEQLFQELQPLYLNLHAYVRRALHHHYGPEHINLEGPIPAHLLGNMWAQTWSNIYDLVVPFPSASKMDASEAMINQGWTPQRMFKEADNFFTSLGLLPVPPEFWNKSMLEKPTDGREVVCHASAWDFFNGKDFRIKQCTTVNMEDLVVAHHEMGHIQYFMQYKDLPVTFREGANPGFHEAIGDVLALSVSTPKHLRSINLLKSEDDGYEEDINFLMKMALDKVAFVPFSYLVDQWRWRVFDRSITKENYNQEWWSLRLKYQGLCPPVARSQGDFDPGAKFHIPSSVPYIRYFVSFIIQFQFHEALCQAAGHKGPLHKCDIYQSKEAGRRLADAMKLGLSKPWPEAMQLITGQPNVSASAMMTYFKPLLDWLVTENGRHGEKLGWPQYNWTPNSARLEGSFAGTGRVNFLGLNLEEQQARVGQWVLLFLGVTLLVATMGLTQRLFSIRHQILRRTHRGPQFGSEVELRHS
How it was run: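 Fluorogenic substrate cleavage by 1 nM ACE, read at 320/405 nm after EDTA stop at ~30 min. Reactions at 25 °C, pH 7.5, in HEPES/NaCl/Brij-35 buffer; compounds tested at 12 concentrations in 5% DMSO.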

ACE-2 [2] = target: T3, ACE-2 (Homo sapiens, UniProt Q9BYF1); experiment: ACE-2 Competitive Substrate Assay (ACS Assay); format: biochemical; details: Ki class, compounds tested in 5% DMSO, read-out: Human ACE-2 Activity
T3 construct: a stop codon inserted after the serine immediately preceding the transmembrane domain; made in house; host or cells: CHO K1 cells (transient transfection, purified from conditioned medium)
T3 sequence (Q9BYF1 18-740 limits assumed): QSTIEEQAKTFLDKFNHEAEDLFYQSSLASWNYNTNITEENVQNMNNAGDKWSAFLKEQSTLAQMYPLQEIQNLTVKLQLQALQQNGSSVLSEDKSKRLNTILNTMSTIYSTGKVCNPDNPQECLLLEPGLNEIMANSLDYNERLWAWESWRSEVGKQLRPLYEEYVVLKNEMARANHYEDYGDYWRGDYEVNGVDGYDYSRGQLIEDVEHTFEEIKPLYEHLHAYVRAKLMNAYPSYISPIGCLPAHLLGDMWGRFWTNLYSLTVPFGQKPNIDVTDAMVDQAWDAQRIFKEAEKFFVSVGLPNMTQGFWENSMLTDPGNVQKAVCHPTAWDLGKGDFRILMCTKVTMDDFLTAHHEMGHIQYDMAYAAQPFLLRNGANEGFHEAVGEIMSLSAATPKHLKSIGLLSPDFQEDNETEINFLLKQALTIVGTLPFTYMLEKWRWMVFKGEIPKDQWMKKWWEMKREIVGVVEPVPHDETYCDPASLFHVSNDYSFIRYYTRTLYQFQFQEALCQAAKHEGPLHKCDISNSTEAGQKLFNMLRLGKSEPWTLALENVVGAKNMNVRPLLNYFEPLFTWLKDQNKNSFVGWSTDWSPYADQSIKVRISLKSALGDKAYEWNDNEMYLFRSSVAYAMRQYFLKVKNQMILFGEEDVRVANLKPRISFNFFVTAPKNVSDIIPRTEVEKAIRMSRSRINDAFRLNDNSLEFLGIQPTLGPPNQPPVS

Sequence of ACE-2 (Rattus norvegicus, UniProt Q5EGZ1) (Q5EGZ1 18-805): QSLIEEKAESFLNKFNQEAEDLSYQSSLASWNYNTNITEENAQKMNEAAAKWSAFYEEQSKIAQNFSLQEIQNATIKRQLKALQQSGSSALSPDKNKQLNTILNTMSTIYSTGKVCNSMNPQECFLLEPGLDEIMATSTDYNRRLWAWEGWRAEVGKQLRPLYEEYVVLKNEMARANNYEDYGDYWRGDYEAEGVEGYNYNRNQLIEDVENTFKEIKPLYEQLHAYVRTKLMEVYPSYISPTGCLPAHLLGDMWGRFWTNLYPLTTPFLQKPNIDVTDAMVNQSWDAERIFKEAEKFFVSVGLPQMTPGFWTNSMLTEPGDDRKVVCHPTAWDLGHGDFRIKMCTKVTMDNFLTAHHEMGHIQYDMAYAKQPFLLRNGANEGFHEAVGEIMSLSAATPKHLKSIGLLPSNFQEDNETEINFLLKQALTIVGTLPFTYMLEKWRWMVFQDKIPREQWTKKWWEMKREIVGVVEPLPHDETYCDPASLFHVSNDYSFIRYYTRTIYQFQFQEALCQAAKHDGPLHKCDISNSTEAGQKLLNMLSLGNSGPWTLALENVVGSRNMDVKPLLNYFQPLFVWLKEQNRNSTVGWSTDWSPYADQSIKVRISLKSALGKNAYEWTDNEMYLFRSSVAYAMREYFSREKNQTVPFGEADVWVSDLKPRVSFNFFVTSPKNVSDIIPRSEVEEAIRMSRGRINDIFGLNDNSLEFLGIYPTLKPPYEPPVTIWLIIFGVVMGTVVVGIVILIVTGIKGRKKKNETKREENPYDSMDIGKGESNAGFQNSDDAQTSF

Ki (Carboxypeptidase A; 12 concentrations) [nM]	Ki (ACE-2 [1]; 12 concentrations) [nM]	Ki (ACE (Sigma, A2580); 12 concentrations) [nM]	Ki (ACE-2 [2]; 12 concentrations) [nM]	Ki (Carboxypeptidase A; 12 compound concentrations) [nM]	Ki (ACE-2 [1]; 12 compound concentrations) [nM]	Ki (ACE (Sigma, A2580); 12 compound concentrations) [nM]	Ki (ACE-2 [2]; 12 compound concentrations, Ki=Kiapp/(1+[S]/Km)) [nM]	Structure (SMILES)
> 50000	> 500	> 50000	> 500	–	–	–	–	CC(C)CC(N[C@@H](Cc1cn(Cc2ccccc2)cn1)C(=O)O)C(=O)O (single isomer, unassigned) [DL, 2-[2-(1-Benzyl-1H-imidazol-4-yl)-1-carboxy-ethylamino]-4-methyl-pentanoic acid]
> 50000	100 to 500	> 50000	> 500	–	–	–	–	CC(C)CC(N[C@@H](Cc1cncn1Cc1cccc([N+](=O)[O-])c1)C(=O)O)C(=O)O (single isomer, unassigned) [GB, 2-[1-Carboxy-2-[3-(3-nitro-benzyl)-3H-imidazol-4-yl]-ethylamino]-4-methyl-pentanoic acid]
< 10000	> 500	10000 to 50000	> 500	–	–	–	–	CC(C)CC(N[C@@H](Cc1cn(Cc2ccccc2)cn1)C(=O)O)C(=O)O (stereo partly shown) [BV, 2-[2-(1-Benzyl-1H-imidazol-4-yl)-1-carboxy-ethylamino]-4-methyl-pentanoic acid]
–	–	–	–	10000 to 50000	< 100	10000 to 50000	< 100	CC(C)CC(N[C@@H](Cc1cncn1Cc1ccc(Cl)c(Cl)c1)C(=O)O)C(=O)O (single isomer, unassigned) [GW]
> 50000	100 to 500	> 50000	100 to 500	–	–	–	–	CC(C)CC(N[C@@H](Cc1cncn1COCc1ccccc1)C(=O)O)C(=O)O (stereo partly shown) [DX, 2-[2-(3-Benzyloxymethyl-3H-imidazol-4-yl)-1-carboxy-ethylamino]-4-methyl-pentanoic acid]
> 50000	> 500	> 50000	> 500	–	–	–	–	CC(C)CC(N[C@@H](Cc1cncn1COCc1ccccc1)C(=O)O)C(=O)O (single isomer, unassigned) [EO, 2-[2-(3-Benzyloxymethyl-3H-imidazol-4-yl)-1-carboxy-ethylamino]-4-methyl-pentanoic acid]
> 50000	> 500	> 50000	> 500	–	–	–	–	CC(C)CC(N[C@H](Cc1cn(Cc2ccccc2)cn1)C(=O)O)C(=O)O (stereo in doubt) [CW, 2-[2-(1-Benzyl-1H-imidazol-4-yl)-1-carboxy-ethylamino]-4-methyl-pentanoic acid]

Second part, the compound before the results:

Structure (SMILES)	Ki (Carboxypeptidase A; 12 concentrations) [nM]	Ki (ACE-2 [1]; 12 concentrations) [nM]	Ki (ACE (Sigma, A2580); 12 concentrations) [nM]	Ki (ACE-2 [2]; 12 concentrations) [nM]	Ki (Carboxypeptidase A; 12 compound concentrations) [nM]	Ki (ACE-2 [1]; 12 compound concentrations) [nM]	Ki (ACE (Sigma, A2580); 12 compound concentrations) [nM]	Ki (ACE-2 [2]; 12 compound concentrations, Ki=Kiapp/(1+[S]/Km)) [nM]
O=C(O)C(CCc1ccccc1)N[C@@H](Cc1c[nH]cn1)C(=O)O (stereo partly shown) [DP, 2-[1-Carboxy-2-(1H-imidazol-4-yl)-ethylamino]4-phenyl-butync acid]	> 50000	100 to 500	10000 to 50000	> 500	–	–	–	–
CC(C)CC(N[C@@H](Cc1c[nH]cn1)C(=O)NCC(=O)O)C(=O)O (stereo partly shown) [FD, 2-[1-(Carboxymethyl-carbamoyl)-2-(1H-imidazol-4-yl)-ethylamino]4-methyl-pentanoic acid]	> 50000	> 500	< 10000	> 500	–	–	–	–
CC(C)C[C@@H](N[C@H](C(=O)O)c1ccccc1)C(=O)O [BS, 2-[(Carboxy-phenyl-methyl)-amino]-4-methyl-pentanoic acid]	> 50000	> 500	> 50000	> 500	–	–	–	–
CCCC(NC(Cc1c[nH]cn1)C(=O)O)C(=O)O (single isomer, unassigned) [DJ, 2-[1-Carboxy-2-(1H-imidazol-4-yl)-ethylamino)pentanoic acid]	> 50000	100 to 500	> 50000	> 500	–	–	–	–
CC(C)C[C@H](N[C@H](CC(=O)O)C(=O)O)C(=O)O [U, 2-(1-Carboxy-3-methyl-butylamino)-succinic acid]	> 50000	> 500	> 50000	> 500	–	–	–	–
COC(=O)[C@H](Cc1c[nH]cn1)NC(CC(C)C)C(=O)O (single isomer, unassigned) [CT, 2-[2-(1H-Imidazol-4-yl)-1-methoxycarbonyl-ethylamino]-4-methyl-pentanoic acid]	> 50000	> 500	> 50000	> 500	–	–	–	–
CC(C)CC(N[C@@H](Cc1c[nH]cn1)C(=O)O)C(=O)O (single isomer, unassigned) [BK, 2-[1-Carboxy-2-(1H-imidazol-4-yl)-ethylamino]4-methyl-pentanoic acid]	> 50000	100 to 500	> 50000	> 500	–	–	–	–
CC(C)CC(N[C@H](CO)Cc1c[nH]cn1)C(=O)O (single isomer, unassigned) [FO, 2-[1-Hydroxymethyl-2-(1H-imidazol-4-yl)-ethylamino)4-methyl-pentanoic acid]	> 50000	> 500	> 50000	> 500	–	–	–	–
CCCC(N[C@H](Cc1c[nH]cn1)C(=O)O)C(=O)O (stereo partly shown) [BC, 2-[1-Carboxy-2-(1H-imidazol-4-yl)-ethylamino]pentanoic-acid]	> 50000	> 500	10000 to 50000	> 500	–	–	–	–
CC(C)CC(N[C@H](Cc1c[nH]cn1)C(=O)O)C(=O)O (stereo partly shown) [BB, 2-[1-Carboxy-2-(1H-imidazol-4-yl)-ethylamino]4-methyl-pentanoic acid]	> 50000	> 500	< 10000	> 500	–	–	–	–
CC(C)CC(N[C@@H](Cc1cnc[nH]1)C(=O)NCCc1ccccc1)C(=O)O (single isomer, unassigned) [FW, 2-[2-(3H-Imidazol-4-yl)-1-phenethylcarbamoyl-ethylamino]-4-methyl-pentanoic acid]	> 50000	> 500	> 50000	> 500	–	–	–	–
CC(C)CC(N[C@@H](Cc1cncn1Cc1ccc(C(F)(F)F)cc1)C(=O)O)C(=O)O (stereo partly shown) [GJ, 2-[1-Carboxy-2-[3-(4-trifluoromethyl-benzyl)-3H-imidazol-4-yl]-ethylamino]4-methyl-pentanoic acid]	10000 to 50000	> 500	10000 to 50000	> 500	–	–	–	–
CC(C)CC(N[C@H](Cc1nc[nH]n1)C(=O)O)C(=O)O (stereo partly shown) [CE, 2-[1-Carboxy-2-(1H-[1,2,4]triazol-3-yl)-ethylamino]-4-methyl-pentanoic acid]	> 50000	> 500	> 50000	> 500	–	–	–	–
CC(C)CC(N[C@@H](Cc1nc[nH]n1)C(=O)O)C(=O)O (stereo partly shown) [CD, 2-[1-Caboxy-2-(1H-[1,2,4]triazol-3-yl)-ethylamino]-4-methyl-pentanoic acid]	> 50000	100 to 500	> 50000	> 500	–	–	–	–
CC(C)CC(CS)C(=O)O (stereo not shown) [DQ, 2-Mercaptomethyl-4-methyl-pentanoic acid]	> 50000	100 to 500	> 50000	> 500	–	–	–	–
